Assays:
BALB/C mice [1] = assay: Local tolerance determination by footpad injection; type: in vivo; details: cirRNA (SEQ ID NO: 1) LNP, 0.175 mg*kg-1 subcutaneous into the footpad, 24 hours post minus prior
Experimental: 6-8 week old, female BALB/C mice were injected with 0.175 mg*kg-1 RNA LNPs by subcutaneous injection into the footpad. Prior to, and 24 hours post injections, injected footpad thickness was determined by a caliper.

RAW 264.7 cells [2] = assay: In vitro expression of firefly-luciferase, RAW 264.7; type: cell-based
Outline: (§1)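 First, cells were dosed with RNA lipid nanoparticles encoding firefly luciferase (100 ng/mL). Second, at 72 h they were washed and lysed. Third, lysate luciferase activity was read with a luminometer.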

Hep G2 cells [3] = assay: In vitro toxicity (CellTiter-Glo cell viability), Hep G2; type: cell-based;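 note: percent of untreated cells luminescence signal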
Outline: (§2)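 Toxicity of RNA-LNPs (1 μg/mL) is reported as cell viability, calculated from CellTiter-Glo luminescence measured at 72 hours after transfection.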

BALB/C mice [4] = assay: In vivo expression, whole-body luminescence (IVIS)
Experimental: 6-8 week old, female BALB/C mice were injected with 0.05 mg*kg-1 of RNA-LNPs encoding for firefly-luciferase by intravenous injection. At 6 hours post injection, animals were intraperitoneally injected with 15 mg/ml of Luciferin substrate and whole-body luminescence was determined by a bioluminescent in vivo imaging system (IVIS).

RAW 264.7 cells [5] = assay: In vitro toxicity (CellTiter-Glo cell viability), RAW 264.7; type: cell-based;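 note: percent of untreated cells luminescence signal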
Outline: as §2

MCP-I = MCP-I cytokine elevation in serum; type: in vivo; details: cirRNA (SEQ ID NO: 1) LNPs, mice
Experimental: 6-8 week old, female BALB/C mice were injected with 0.5 mg*kg-1 of RNA LNPs by intravenous injection. At 2 and 24 hours post injection, animals were bled and sera concentrations of MCP-I were determined by an immunoassay (Luminex).

[6] = LNP zeta potential (Zetasizer); type: physicochemical
Outline: (§3)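 Dynamic light scattering and zeta potential measurements were run on PBS-dialyzed LNPs, which had been formed by microfluidic mixing at 12 ml/min with final lipid at 1.5 mM to 6 mM. RNA content and percent encapsulation were determined by Ribogreen with and without Triton X-100.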

[7] = RNA encapsulation efficacy by Quant-IT Ribogreen kit; type: physicochemical; details: for Encapsulation Efficiency %: LNP with cirRNA (SEQ ID NO: 1); for Encapsulation Efficiency: LNP with mRNA (SEQ ID NO: 2)
Outline: as §3

Hep G2 cells [8] = assay: In vitro expression of firefly-luciferase, Hep G2; type: cell-based
Outline: as §1

[9] = LNP size and polydispersity index (PDI) by dynamic light scattering; type: physicochemical; details: for Size: in nm (unit assumed)
Outline: as §3

[10] = system: Aspartate Aminotransferase (AST); assay: Liver enzyme elevation in serum, AST; type: in vivo; details: cirRNA (SEQ ID NO: 1) LNPs, BALB/C mice, intravenous 0.5 MPK
Experimental: (§4) 6-8 week old, female BALB/C mice were injected with 0.5 mg*kg-1 of RNA LNPs by intravenous injection. At 2 and 24 hours post injection, animals were bled and sera concentrations of Alanine Aminotransferase (ALT) and Aspartate Aminotransferase (AST) were determined by a blood chemistry analyzer.

[11] = system: Alanine Aminotransferase (ALT); assay: Liver enzyme elevation in serum, ALT; type: in vivo; details: cirRNA (SEQ ID NO: 1) LNPs, BALB/C mice, intravenous 0.5 MPK
Experimental: as §4

[12] = cirRNA (SEQ ID NO: 1) LNPs, firefly-luciferase luminescence, RAW 264.7 cells
[13] = mRNA (SEQ ID NO: 2) LNP, 100 ng/mL, 72 hours post transfection, luciferase activity
[14] = cirRNA (SEQ ID NO: 1) LNPs, Hep G2 cells
[15] = mRNA (SEQ ID NO: 2) LNP, 1 μg/mL, 72 hours post transfection
[16] = cirRNA (SEQ ID NO: 1) LNPs, BALB/C mice
[17] = mRNA (SEQ ID NO: 2) LNP, 0.05 mg*kg-1 intravenous, 6 hours post injection
[18] = cirRNA (SEQ ID NO: 1) LNPs, RAW 264.7 cells
[19] = cirRNA (SEQ ID NO: 1) LNPs, firefly-luciferase luminescence, Hep G2 cells

Compound	Footpad Thickness (24 h−0 h, mm) (BALB/C mice [1])	In vitro Expression RAW (RAW 264.7 cells [2]; [12])	In vitro Expression RAW (RAW 264.7 cells [2]; [13])	In vitro Viability HepG2 (Hep G2 cells [3]; [14])	In vitro Viability HepG2 (Hep G2 cells [3]; [15])	In vivo Expression (Whole Body) (BALB/C mice [4]; [16])	In vivo Expression (Whole Body) (BALB/C mice [4]; [17])	In vitro Viability RAW (RAW 264.7 cells [5]; [18])	In vitro Viability RAW (RAW 264.7 cells [5]; [15])	MCP-I in Sera 2 hours After 0.5 MPK Injection (MCP-I)	Zeta (mV) ([6]; LNP with cirRNA (SEQ ID NO: 1))	Zeta (mV) ([6]; LNP with mRNA (SEQ ID NO: 2))	Encapsulation Efficiency % [7]	Encapsulation Efficiency [7]	In vitro Expression HepG2 (Hep G2 cells [8]; [19])	In vitro Expression HepG2 (Hep G2 cells [8]; [13])	PDI ([9]; LNP with cirRNA (SEQ ID NO: 1))	Size ([9]; LNP with cirRNA (SEQ ID NO: 1))	PDI ([9]; LNP with mRNA (SEQ ID NO: 2))	Size ([9]; LNP with mRNA (SEQ ID NO: 2))	further results
CCCCC/C=C\C/C=C\CCCCCCCCN(CCCCCCCC/C=C\CCCCCCCC)CCOC(=O)NCc1ncc[nH]1 [Lipid 68, 2-(((Z)-octadec-9-en-1-yl)((9Z,12Z)-octadeca-9,12-dien-1-yl)amino)ethyl ((1H-imidazol-2-yl)methyl)carbamate]	1.00 mm	6.86E+05	5.58E+02	99%	100%	1.34E+08	1.54E+08	67%	104%	129.34 pg/mL	−0.647 mV	5.641 mV	92%	88%	2.63E+06	3.74E+03	0.12	57.94	0.1057	61.9	AST in Sera (IU/L) 2 hours After 0.5 MPK Injection [10]: 81.27 IU/L; AST in Sera (IU/L) 24 hours After 0.5 MPK Injection [10]: 60.20 IU/L; ALT in Sera (IU/L) 2 hours After 0.5 MPK Injection [11]: 40.77 IU/L; ALT in Sera (IU/L) 24 hours After 0.5 MPK Injection [11]: 33.37 IU/L
CCCCCCCCCC(=O)OCCCCCCCN(CCCCCCCCOC(=O)C(CCCCCC)CCCCCCCC)CCOC(=O)NCCN1CCCCC1 (centres unmarked) [Lipid 196]	0.44 mm	1.22E+04	2.31E+06	103%	91%	1.86E+07	1.41E+08	91%	110%	489.33 pg/mL	0.4256 mV	−2.076 mV	93%	91.87%	5.54E+04	1.58E+06	0.0364	89.57	0.1806	117.5	MCP-I in Sera 24 hours After 0.5 MPK Injection (MCP-I): 197.30 pg/mL; AST in Sera (IU/L) 2 hours After 0.5 MPK Injection [10]: 202.33 IU/L; AST in Sera (IU/L) 24 hours After 0.5 MPK Injection [10]: 180.67 IU/L; ALT in Sera (IU/L) 2 hours After 0.5 MPK Injection [11]: 80.33 IU/L; ALT in Sera (IU/L) 24 hours After 0.5 MPK Injection [11]: 93.00 IU/L
CCCCCCCCC(CCCCCCCC)OC(=O)CCCCCCCN(CCCCCCCCOC(=O)C(CCCCCC)CCCCCCCC)CCCOC(=O)NCCN1CCCCCC1 (centres unmarked) [Lipid 354]	0.80 mm	4.53E+05	1.10E+06	119%	104%	6.08E+08	7.55E+08	45%	65%	5469.33 pg/mL	−2.263 mV	−0.3781 mV	96%	71.30%	1.63E+06	7.47E+06	0.1505	98.03	0.2144	128.6	MCP-I in Sera 24 hours After 0.5 MPK Injection (MCP-I): 1348.89 pg/mL; AST in Sera (IU/L) 2 hours After 0.5 MPK Injection [10]: 287.33 IU/L; AST in Sera (IU/L) 24 hours After 0.5 MPK Injection [10]: 411.00 IU/L; ALT in Sera (IU/L) 2 hours After 0.5 MPK Injection [11]: 97.67 IU/L; ALT in Sera (IU/L) 24 hours After 0.5 MPK Injection [11]: 192.50 IU/L
CCCCC/C=C\C/C=C\CCCCCCCCN(CCCCCCCC(=O)OC(CCCCCCCC)CCCCCCCC)CCOC(=O)NCc1ncc[nH]1 [Lipid 132, heptadecan-9-yl 8-((2-((((1H-imidazol-2-yl)methyl)carbamoyl)oxy)ethyl)((9Z,12Z)-octadeca-9,12-dien-1-yl)amino)octanoate]	1.24 mm	4.24E+05	1.27E+05	97%	80%	6.13E+08	6.62E+08	108%	93%	28.53 pg/mL	−0.7024 mV	−8.336 mV	97%	89.06%	1.44E+05	1.83E+05	0.072	91.78	0.2359	56.12	MCP-I in Sera 24 hours After 0.5 MPK Injection (MCP-I): 96.56 pg/mL; AST in Sera (IU/L) 2 hours After 0.5 MPK Injection [10]: 136.00 IU/L; AST in Sera (IU/L) 24 hours After 0.5 MPK Injection [10]: 72.53 IU/L; ALT in Sera (IU/L) 2 hours After 0.5 MPK Injection [11]: 65.03 IU/L; ALT in Sera (IU/L) 24 hours After 0.5 MPK Injection [11]: 44.73 IU/L
CCCCCCCCCCCOC(=O)CCCCCN(CCCCCCCC(=O)OC(CCCCCCCC)CCCCCCCC)CCOC(=O)NCCN1CCCCC1 [Lipid 165]	0.32 mm	5.29E+04	6.06E+05	94%	93%	1.11E+08	1.63E+08	88%	101%	127.19 pg/mL	−1.76 mV	−0.3264 mV	91%	86.43%	7.20E+05	3.27E+06	0.05	90.53	0.1265	98.24	MCP-I in Sera 24 hours After 0.5 MPK Injection (MCP-I): 113.67 pg/mL; AST in Sera (IU/L) 2 hours After 0.5 MPK Injection [10]: 128.43 IU/L; AST in Sera (IU/L) 24 hours After 0.5 MPK Injection [10]: 99.03 IU/L; ALT in Sera (IU/L) 2 hours After 0.5 MPK Injection [11]: 63.90 IU/L; ALT in Sera (IU/L) 24 hours After 0.5 MPK Injection [11]: 61.47 IU/L
CCCCC/C=C\C/C=C\CCCCCCCCN(CCCCCCCC(=O)OC(CCCCCCCC)CCCCCCCC)CCCOC(=O)NCCCn1ccnc1 [Lipid 276]	0.51 mm	1.07E+06	8.16E+05	95%	115%	1.88E+08	1.26E+07	117%	83%	1659.21 pg/mL	−0.02248 mV	0.8258 mV	96%	94.50%	9.80E+05	3.01E+05	0.1464	64.42	0.07602	88.07	MCP-I in Sera 24 hours After 0.5 MPK Injection (MCP-I): 120.48 pg/mL; AST in Sera (IU/L) 2 hours After 0.5 MPK Injection [10]: 247.33 IU/L; AST in Sera (IU/L) 24 hours After 0.5 MPK Injection [10]: 89.67 IU/L; ALT in Sera (IU/L) 2 hours After 0.5 MPK Injection [11]: 247.67 IU/L; ALT in Sera (IU/L) 24 hours After 0.5 MPK Injection [11]: 52.00 IU/L
